This note sets out measurements from ChEMBL document CHEMBL1201862, “PubChem BioAssay data set” (2004).

Test systems include LXFL 529; DLD-1; DMS-114; SNB-78; HOP-18; M19-MEL; XF498; DMS-273; RXF 631.
Holding throughout (test): inhibition of tumour cell growth, NCI panel, 48 h

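Tested at 5 concentrations; 48 h exposure; 96-well plates; endpoints linearly interpolated, else capped at highest concentration. GI50: concentration for 50% inhibition of growth.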 Calls of active or inactive are those of the source. Rule as the data show it: active = GI50 up to about 1.1 µM and inactive = higher.

`O=C(O)CCC(=O)Oc1ccc(O)c2c1CCCC2=O`: the GI50 in the assay on LXFL 529, in the assay with DLD-1, with DMS-114, in the assay on SNB-78, in the assay with HOP-18 and with M19-MEL was > 100 µM (inactive) each time. For the same compound, the GI50 was 0.316 µM (active) with XF498 and > 100 µM (inactive) in the assay on DMS-273.
As to `O=C(/C=C/c1ccco1)c1ccc(NCc2nc3ccccc3[nH]2)cc1`, the GI50 in the assay with LXFL 529 is 14.3 µM (inactive); in the assay on DLD-1, 15 µM (inactive); in the assay on DMS-114, 12 µM (inactive); in the assay with SNB-78 it was 21.3 µM (inactive); in the assay with HOP-18, 20.9 µM (inactive); with M19-MEL, 14.9 µM (inactive). Besides, the GI50 in the assay with DMS-273 was 17.5 µM (inactive).
Take `COCCOCOC(C)(C)[C@H](CCOC(C)=O)O[Si](c1ccccc1)(c1ccccc1)C(C)(C)C`: the GI50 in the assay with LXFL 529 was 7.33 µM (inactive); with DLD-1, 13.5 µM (inactive); in the assay with DMS-114, 12.6 µM (inactive); in the assay with RXF 631, 13.4 µM (inactive); with SNB-78, 22.9 µM (inactive); in the assay on HOP-18 it was 30.3 µM (inactive). Moreover, the results for the GI50 in the assay on M19-MEL and with DMS-273 were 13.1 µM (inactive) and 5.3 µM (inactive), respectively.
As for `Cc1[nH]c2ccccc2c1C(=O)CC1(O)C(=O)Nc2ccccc21` (stereo not drawn), the GI50 with LXFL 529 is > 100 µM (inactive); in the assay on DLD-1, > 100 µM (inactive); in the assay with RXF 631 it was > 100 µM (inactive); in the assay on SNB-78, 61 µM (inactive); in the assay on M19-MEL, > 100 µM (inactive); with DMS-273, > 100 µM (inactive).
Turning to `CCOc1ccc(/C(C=O)=C(\Cl)c2ccc(OC)cc2)cc1`, the GI50 in the assay with LXFL 529 is > 100 µM (inactive); in the assay with DLD-1, > 100 µM (inactive); with DMS-114, 40.5 µM (inactive); in the assay on SNB-78, > 100 µM (inactive); with HOP-18 it was 42.3 µM (inactive); in the assay with M19-MEL it was > 100 µM (inactive). In addition, the GI50 in the assay with XF498 and in the assay with DMS-273 was > 100 µM (inactive) in each case.
For the compound `C[C@H]1CC[P+](Cc2ccccc2)(c2ccccc2)C1` (stereo partly drawn), the GI50 in the assay on LXFL 529 was 26.4 µM (inactive); in the assay with DLD-1 it was > 100 µM (inactive); with DMS-114 it was 23 µM (inactive); in the assay on HOP-18 it was > 100 µM (inactive); in the assay on M19-MEL, 26.8 µM (inactive); in the assay on XF498 it was < 0.01 µM (active). The GI50 in the assay on DMS-273 was > 100 µM (inactive).
Consider `O=C1NCC2=C1CCC1c3ccccc3CCN21` (stereo not drawn), for which the GI50 in the assay with LXFL 529, with DLD-1, with DMS-114, in the assay on SNB-78, in the assay with M19-MEL and in the assay with XF498 was > 100 µM (inactive) throughout. For the same compound, the GI50 in the assay with DMS-273 is > 100 µM (inactive).
Consider `COc1ccc2c(c1)Oc1cc(O)ccc1[C@H]2c1ccccc1C(=O)NC(C)c1ccccc1` (stereo partly drawn), for which the GI50 was 15.3 µM (inactive) in the assay with LXFL 529; 18.2 µM (inactive) in the assay on DLD-1; 11.5 µM (inactive) with DMS-114; 16.6 µM (inactive) in the assay on SNB-78; 15.7 µM (inactive) in the assay with M19-MEL; 14.5 µM (inactive) in the assay on DMS-273.
Take `O=C1NC(Cc2ccc(O)cc2)C(=O)N2CCCC12` (stereo not drawn): the GI50 in the assay on LXFL 529, in the assay with DLD-1, with DMS-114, in the assay on RXF 631, in the assay on SNB-78 and in the assay with HOP-18 was > 100 µM (inactive) in each case. In addition, the GI50 in the assay on M19-MEL and in the assay on DMS-273 was > 100 µM (inactive) in each case.
With `Cc1ccc(-n2nc(C(OC3OC(CO)C(O)C(O)C3O)C(O)CO)c3nc4cc(C)c(C)cc4nc32)cc1` (stereo not drawn), the GI50 in the assay on LXFL 529, in the assay on DLD-1, in the assay on DMS-114, in the assay on RXF 631, in the assay on SNB-78 and in the assay on M19-MEL was > 100 µM (inactive) in each case. In the assay with XF498, the GI50 was > 100 µM (inactive).
Regarding `CCCC(=O)N[C@H]1C2C3CC4C5CC(C42)C1(C)C53` (stereo partly drawn), the GI50 in the assay with DLD-1, in the assay with SNB-78, with HOP-18, in the assay on M19-MEL and with DMS-273 was > 100 µM (inactive) throughout.
On to `O=C(CC1(O)C(=O)Nc2c(Cl)cc(Cl)cc21)c1ccc(Br)cc1` (stereo not drawn), for which the GI50 in the assay with LXFL 529 was > 37.9 µM (inactive); in the assay on DLD-1, 13.2 µM (inactive); in the assay on DMS-114 it was 20.6 µM (inactive); with RXF 631, 12.4 µM (inactive); in the assay with SNB-78, 19.1 µM (inactive); with HOP-18, 15.7 µM (inactive). In addition, the GI50 is 7.76 µM (inactive) in the assay with M19-MEL and 13.5 µM (inactive) with DMS-273.
`COc1ccc(/C=C2\CCC(Cc3ccccc3)(CN(C)C)C2=O)cc1` (stereo not drawn): the GI50 is 36.1 µM (inactive) in the assay with LXFL 529; 26.4 µM (inactive) in the assay with DLD-1; 18.2 µM (inactive) with DMS-114; 35.5 µM (inactive) in the assay with SNB-78; > 100 µM (inactive) with HOP-18; 28.4 µM (inactive) with M19-MEL. For the same compound, in the assay with DMS-273, the GI50 is 15.2 µM (inactive).
As to `CCOC(=O)C1CC(=O)C=C2CCCCC21` (stereo not drawn), the GI50 with LXFL 529, in the assay with DLD-1, in the assay with DMS-114, in the assay on RXF 631, in the assay on SNB-78 and with M19-MEL was > 100 µM (inactive) throughout. For the same compound, the GI50 with XF498 and in the assay with DMS-273 was > 100 µM (inactive) in each case.
Turning to `CC1=C2[C@@H](c3ccccc3)C3C=CC2(c2ccccc23)N(C(=O)Nc2cccc3ccccc23)C1=O` (stereo partly drawn), the GI50 in the assay with LXFL 529, with DMS-114, with SNB-78, with HOP-18, with XF498 and in the assay on DMS-273 was > 100 µM (inactive) throughout.
In the case of `C[C@]12CCC(=O)C=C1CC[C@@H]1[C@@H]2C(=O)C[C@@]2(C)[C@H]1CC[C@]2(O)C(=O)CO` [CORTISONE], the GI50 with LXFL 529, in the assay with DLD-1, in the assay with DMS-114, in the assay with HOP-18, in the assay on M19-MEL and with XF498 was > 100 µM (inactive) each time. In addition, the GI50 in the assay with DMS-273 is > 100 µM (inactive).
Regarding `CCOC(=O)Nc1ccc2c(c1)N(C(=O)CCN(CC)CC)c1ccccc1S2` [ETHACIZINE], the GI50 was 19 µM (inactive) in the assay on LXFL 529; 29.1 µM (inactive) with DLD-1; 18.2 µM (inactive) in the assay on DMS-114; 5.18 µM (inactive) with SNB-78; 42 µM (inactive) in the assay on HOP-18; 32.1 µM (inactive) in the assay on M19-MEL. Further, the GI50 in the assay on XF498 is 18.1 µM (inactive); with DMS-273 it was 27 µM (inactive).
In the case of `N#CC(/C(CCC(=O)Nc1ccc(Cl)cc1)=N/NC(=O)c1cc2ccccc2cc1O)c1ccccc1` (stereo not drawn), the GI50 is 43 µM (inactive) in the assay with LXFL 529; 33.7 µM (inactive) in the assay with DLD-1; 25.4 µM (inactive) in the assay with DMS-114; 66.1 µM (inactive) in the assay with SNB-78; 21.5 µM (inactive) in the assay with HOP-18; 33.7 µM (inactive) in the assay with M19-MEL. The GI50 with XF498 was 54.8 µM (inactive).
With `COc1ccc2nc3ccccc3c(NCCCCCCN(C)CCCl)c2c1`, the GI50 in the assay on LXFL 529 was 0.262 µM (active); in the assay on DLD-1, 0.164 µM (active); in the assay on DMS-114, 0.166 µM (active); in the assay on SNB-78 it was 0.33 µM (active); in the assay with M19-MEL it was 0.308 µM (active); in the assay with XF498, 0.2 µM (active). Also, the GI50 with DMS-273 is 0.0488 µM (active).
Take `CC1(C)OCC([C@H]2CC23SCCCS3)O1` (stereo partly drawn): the GI50 with LXFL 529, with DLD-1, in the assay on DMS-114, in the assay with SNB-78, in the assay with HOP-18 and in the assay with XF498 was > 100 µM (inactive) each time. Moreover, the GI50 in the assay on DMS-273 is > 100 µM (inactive).
On to `O=c1[nH]c(=O)n([C@H]2C[C@@H](CO)[C@@H](O)C2)cc1I`, for which the GI50 with LXFL 529, with DLD-1, with DMS-114, in the assay on SNB-78, in the assay with HOP-18 and with M19-MEL was > 100 µM (inactive) each time. Also, the GI50 in the assay on DMS-273 is > 100 µM (inactive).
Regarding `CC[C@@H]1OC2(C)CC(S(=O)(=O)c3ccccc3O)CC1O2` (stereo partly drawn), the GI50 in the assay with LXFL 529, in the assay on DLD-1, in the assay on RXF 631, with HOP-18, in the assay on M19-MEL and in the assay with DMS-273 was > 100 µM (inactive) throughout.
`CC(=O)CC(=O)OC1CC(C)CCC1C(C)C` (stereo not drawn): the GI50 in the assay with LXFL 529 is 89.5 µM (inactive); in the assay with DLD-1, 24.7 µM (inactive); in the assay with DMS-114, 37.2 µM (inactive); in the assay on RXF 631 it was > 100 µM (inactive); in the assay with SNB-78 it was > 100 µM (inactive); in the assay with M19-MEL, 34.6 µM (inactive). Also, the GI50 was > 100 µM (inactive) in the assay on XF498 and 41.9 µM (inactive) with DMS-273.
For the compound `CCN(CC)CC[n+]1ccc2c(C)c3[nH]c4ccc(O)cc4c3c(C)c2c1`, the GI50 in the assay with LXFL 529 was 2.5 µM (inactive); in the assay on DLD-1, 11.6 µM (inactive); with DMS-114, 0.767 µM (active); with SNB-78 it was 3.5 µM (inactive); in the assay on HOP-18, 4.23 µM (inactive); in the assay on M19-MEL it was 1.21 µM (inactive). Further, the GI50 in the assay with DMS-273 is 2.92 µM (inactive).
As to `CCCCCCCCC[C@@H]1CC(=O)OCC2OC(O[C@H](CCCCCCCCC)CC(=O)OCC3OC(O[C@H](CCCCCCCCC)CC(=O)OCC4OC(O1)C(O)C(O)C4O)C(O)C(O)C3O)C(O)C(O)C2O` (stereo partly drawn), the GI50 in the assay on LXFL 529 was 6.53 µM (inactive); in the assay with DLD-1, 14 µM (inactive); with DMS-114 it was 8.89 µM (inactive); in the assay with SNB-78, 17.3 µM (inactive); in the assay on HOP-18, < 0.01 µM (active); in the assay on M19-MEL, 4.42 µM (inactive). Besides, the GI50 in the assay on XF498 is 7.74 µM (inactive); in the assay with DMS-273, 8.65 µM (inactive).
